From the NIST ThermoML archive (doi:10.1021/je034023f)

Experiment: Henry's Law constant (molality scale); of the first substance listed, at infinite dilution; mn = molality of the nth substance listed, in mol/kg
Conditions: Liquid, m1 = 0

O=C=O [carbon dioxide] + CCCCn1cc[n+](C)c1.F[P-](F)(F)(F)(F)F
Conditions | Henry's Law constant [kPa·kg/mol]
293.15 K | 1200
313.15 K | 1890
333.15 K | 2700
353.15 K | 3570
373.15 K | 4470
393.15 K | 5490
